Results as given in publication PMC4072668, “Mass Spectrometric Detection and Characterization of Atypical Membrane-Bound Zinc-Sensitive Phosphatases Modulating GABAA Receptors” (PLoS ONE, 2014).

Legend:
[1] = tested on: membrane-bound phosphatase activities of washed cortical membrane; test: LC-MS/MS phosphatase assay with effectors, N-terminal phosphopeptide pI2α1N-P as substrate; type: biochemical
Description: (§1) Phosphatasic activity of bovine, rat and human washed cortical membranes was measured by using synthetic phosphopeptides as substrates. Reactions were performed in presence of 50 µg/ml (total proteins) of washed cortical membrane, 10 mM Hepes-Tris pH 7.4 and 1 mM MgCl2. Enzymatic reactions were initiated by adding 10 µM of phosphopeptide incubated for 10 min at 30°C and stopped by adding ice-cold acetic acid at a final concentration of 10% (w/v). Following a 800 g centrifugation during 10 min at 4°C, the supernatants were analyzed by LC-MS/MS. […] For these reasons, and to avoid micro-capillary column obstruction we have preferentially used the micro-LC column to characterize the pharmacological profile of phosphatasic activities.
Quantification of appearance of the native peptide and disappearance of the phosphopeptide in different conditions was performed using the calibration curve plotted using the Xcalibur software (P/N 64018-XCALI version 1.3). The calibration curve and linear regression were constructed using a series of standards, native and phosphorylated equimolar mixture, N- or C-terminal peptides at different concentrations 0.5, 1, 2, 5 and 10 µM (n = 2) in 10 mM Hepes pH 7.4, 1 mM Mg^2+ and 10% acetic acid, which was the same milieu condition as in the phosphatase assay after stopping reactions. The linear regression represents peak area of MS/MS chromatogram spectra depending on the peptide concentration (Figure S1).
Different effectors were tested by addition to the incubation medium at variable concentration: the dicationic ions Mg^2+, Ca^2+, Zn^2+ were used as chloride, the polycation spermine as hydrochloride, the anion F^− as sodium fluoride (NaF), and the inhibitors of some known phosphatases okadaic acid and the two (+/−) enantiomers of p–bromotetramisole oxalate (p-Br-t). For the inhibitory effects, relative 50% inhibition concentration (IC50) values were either determined graphically with a log-scale for the concentration axis or by the ‘log (inhibitor) vs. response’ nonlinear fit of Prism 5 software (GraphPad), considering activity in the absence of inhibitor as 100%.
Figure 4 Effects of various inhibitors on the membrane-bound phosphatase activities. […] Incubations were performed at 30°C during 10 min. The activities are expressed as a percentage of that of control samples without inhibitors. Inhibition profiles of PPase activities by okadaic acid were performed using N-terminal phosphopeptide (A) or C-terminal phosphopeptide (B) as substrate. The data points are means ± SEM of 3 experiments. The red arrows indicate the different IC50. […] Data points are the average ± SEM of duplicate assays. (D) Effect of Ca^2+ ions, fluoride (F^−) and spermine (SPM^4+) on PPase activity using N-terminal phosphopeptide as substrate.

[2] = tested on: membrane-bound phosphatase activities of washed cortical membrane; test: LC-MS/MS phosphatase assay with effectors, C-terminal phosphopeptide pI2α1C-P as substrate; type: biochemical
Description: as §1
Quantification of appearance of the native peptide and disappearance of the phosphopeptide in different conditions was performed using the calibration curve plotted using the Xcalibur software (P/N 64018-XCALI version 1.3). […]
Figure 4 Effects of various inhibitors on the membrane-bound phosphatase activities. […] The activities are expressed as a percentage of that of control samples without inhibitors. […]

[3] = tested on: GABAA receptor currents in pyramidal neurons; test: Whole-cell patch clamp, rundown of GABAA currents in acutely dissociated cortical pyramidal neurons; type: cell-based, rat; details: 10 µM in the pipette
Description: Adult Sprague Dawley rats (35–40 days of age) were anesthetized by isoflurane and killed by decapitation. The brains were removed quickly and placed in cold artificial cerebro-spinal fluid (Ringer) containing (in mM) 126 NaCl, 3 KCl, 26 NaHCO3, 1.25 Na2HPO4, 2.5 CaCl2, 1.5 MgCl2, 10 D-glucose, saturated with carbogen gas (O2:CO2, 95:5%) pH 7.4. Cortical neurons were acutely dissociated from 400 µm thick slices by incubation in 3 mg/ml protease-XXIII (Sigma) at 32°C, followed by mechanical dissociation. After washing, the cells were transferred in a solution containing (in mM) 135 NaCl, 3 KCl, 2 CaCl2, 10 Hepes, 1 MgCl2, 7 TEA-Cl, 10 D-glucose, and 1 µM TTX, pH 7.4. Pyramidal neurons were recorded using borosilicate glass pipettes (4–5 MΩ) filled with a solution containing (in mM) 130 CsF, 10 CsCl, 4 NaCl, 0.5 CaCl2, 10 Hepes, 5 EGTA, and 7 Mg-ATP. Okadaic acid at 10 µM was added to this intracellular milieu for specific experiments.
Whole-cell peak currents induced by GABA (100 µM; fast applications of 1 sec pulses every 3 min) were measured for each application and normalized to the maximal response.
Figure 5 Effects of okadaic acid on the GABAA current rundown. GABAA currents were measured by whole-cell patch clamp on acutely dissociated cortical pyramidal neurons from Sprague Dawley rats. (A) Micrographs of a patched cell at two different magnifications, showing the rapid application device (left). (B) Rundown in cortical neuron: GABA was applied at a concentration of 100 µM during 1 second every 3 min. […] For each group the plot (Left) is the average of normalized currents. Error bars indicate the SEM.

[4] = tested on: GABAA receptor currents in pyramidal neurons; parameters: method as in PMID 15342727; details: 10 µM in the pipette milieu, four neurons; cited from earlier work
PP1 = tested on: PP1; parameters: method as in PMID 10617768; details: mammalian brain; cited from earlier work
PP2A = tested on: PP2A; parameters: method as in PMID 10617768; details: mammalian brain; cited from earlier work
PP2B = tested on: PP2B; parameters: method as in PMID 10617768; details: mammalian brain; cited from earlier work
PP4 = tested on: PP4; parameters: method as in PMID 10617768; details: mammalian brain; cited from earlier work
PP5 = tested on: PP5; parameters: method as in PMID 10617768; details: mammalian brain; cited from earlier work
PP6 = tested on: PP6; parameters: method as in PMID 10617768; details: mammalian brain; cited from earlier work
PP2C = tested on: PP2C; parameters: method as in PMID 10617768; details: up to 1–10 µM; cited from earlier work
PTP = tested on: PTP; parameters: method as in PMID 10617768; details: up to 1–10 µM; cited from earlier work
PP7 = tested on: PP7; parameters: method as in PMID 10617768; details: up to 1–10 µM; cited from earlier work
acid phosphatase = tested on: acid phosphatase; parameters: method as in PMID 10617768; details: up to 1–10 µM; cited from earlier work
alkaline phosphatase = tested on: alkaline phosphatase; parameters: method as in PMID 10617768; details: up to 1–10 µM; cited from earlier work

C=C1[C@@H](O)[C@@H]2O[C@]3(CC[C@H](/C=C/[C@@H](C)[C@@H]4CC(C)=C[C@@]5(O[C@H](C[C@@](C)(O)C(=O)O)CC[C@H]5O)O4)O3)CC[C@H]2O[C@@H]1[C@@H](O)C[C@H](C)[C@H]1O[C@@]2(CCCCO2)CC[C@H]1C [okadaic acid, Okadaic acid]
inhibition of membrane-bound phosphatases ([1]; 300 nM, substrate pI2α1N-P): completely inhibits
inhibition of phosphatasic activities by the phosphopeptide method ([1]; 10 µM, substrate not specified): inhibited most phosphatasic activities
IC50 ([1]; substrate pI2α1N-P, read-out: apparent IC50, high affinity (H)): 0.15 nM
IC50 ([1]; substrate pI2α1N-P, read-out: apparent IC50, low affinity (L)): 5 nM
inhibition of membrane-bound phosphatases ([2]; 300 nM): completely inhibits
IC50 ([2]; only one affinity, read-out: apparent IC50): 0.18 nM
GABAA current rundown in some cells [3]: rundown could be abolished
GABAA current rundown, 'Very Rapid' group of neurons vs control ([3]; n = 5, Dunnett's test Ns): not sensitive to okadaic acid
GABAA current rundown, 'Mid Rapid', 'Mid Slow' and 'Very Slow' groups of neurons vs control ([3]; p<0.01 Mid Rapid, p<0.0001 Mid Slow and Very Slow): statistically different from the control
effect on the GABAA current rundown [4]: variable effect
IC50 (PP1): 270 nM
IC50 (PP2A): 2 nM
IC50 (PP2B): 3600 nM
IC50 (PP4): 0.2 nM
IC50 (PP5): 1.4 to 10 nM
IC50 (PP6): 2 nM
inhibition (PP2C): not inhibited
inhibition (PTP): not inhibited
inhibition (PP7): not inhibited
inhibition (acid phosphatase): not inhibited
inhibition (alkaline phosphatase): not inhibited
